Results published in BindingDB's records for doi:10.1021/jm000290u (Purdue University, 2001).

Molecular target: Human immunodeficiency virus 2
Assay: In vitro inhibition of cytopathic effect was determined against HIV-2 ROD in MT-4 cells using MTT cytoprotection assay

EC50 [µM] | Compound
19.9 | COc1c(Cl)cc(Cc2cc(C(=CCC[C@H]3CC[C@@]4(C)C(CCC5C4CC[C@@]4(C)C5CC[C@@H]4C(C)CCCC(C)C)C3)c3cc(Cc4cc(Cl)c(OC)c(C(=O)O)c4)c(OC)c(C(=O)O)c3)cc(C(=O)O)c2OC)cc1C(=O)O (stereo not given in full) [Cosalane analogue]
> 62 | CC(C)CCCC(C)[C@H]1CCC2C3CCC4C[C@@H](CCC=C(c5cc(Cl)c(O)c(C(=O)N[C@@H](Cc6ccccc6)C(=O)O)c5)c5cc(Cl)c(O)c(C(=O)N[C@@H](Cc6ccccc6)C(=O)O)c5)CC[C@]4(C)C3CC[C@@]21C (stereo partly drawn) [2-(5-{1-{3-[1-carboxy-2-phenyl-(1S)-ethylcarbamoyl]-5-chloro-4-hydroxyphenyl}-4-[1-(1,5-dimethylhexyl)-9a,11a-dimethylperhydrocyclopenta[a]phenanthren-7-yl]-1-butenyl}-3-chloro-2-hydroxyphenylcarboxamido)-3-phenyl-(2S)-propanoic acid]
70.4 | CC(C)CCCC(C)[C@H]1CCC2C3CCC4C[C@@H](CCCC(c5cc(Cl)c(OCc6ccc(C(=O)O)cc6)c(C(=O)O)c5)c5cc(Cl)c(OCc6ccc(C(=O)O)cc6)c(C(=O)O)c5)CC[C@]4(C)C3CC[C@@]21C (stereo partly drawn) [3'',3'''-Dichloro-5'',5'''-dicarboxy-4'',4'''-di[p-carboxybenzyloxy]-4',4'-diphenyl-3beta-(1-butyl)cholestane]
> 66 | COc1ccc(C(=O)Nc2cc(C(=CCC[C@H]3CC[C@@]4(C)C(CCC5C4CC[C@@]4(C)C5CC[C@@H]4C(C)CCCC(C)C)C3)c3cc(NC(=O)c4ccc(OC)c(C(=O)O)c4)c(OC)c(C(=O)O)c3)cc(C(=O)O)c2OC)cc1C(=O)O (stereo not given in full) [Cosalane analogue]
120 | CC(C)CCCC(C)[C@H]1CCC2C3CCC4C[C@@H](CCC=C(c5cc(Cl)c(O)c(C(=O)NCCC(=O)O)c5)c5cc(Cl)c(O)c(C(=O)NCCC(=O)O)c5)CC[C@]4(C)C3CC[C@@]21C (stereo not given in full) [3-(5-{1-[3-(2-Carboxy-ethylcarbamoyl)-5-chloro-4-hydroxy-phenyl]-4-[17-(1,5-dimethyl-hexyl)-10,13-dimethyl-hexadecahydro-cyclopenta[a]phenanthren-3-yl]-but-1-enyl}-3-chloro-2-hydroxy-benzoylamino)-propionic acid]
83.8 | CC(C)CCCC(C)[C@H]1CCC2C3CCC4C[C@@H](CCC=C(c5cc(Cl)c(OCc6ccc(CC(=O)O)cc6)c(C(=O)O)c5)c5cc(Cl)c(OCc6ccc(CC(=O)O)cc6)c(C(=O)O)c5)CC[C@]4(C)C3CC[C@@]21C (stereo partly drawn) [3'',3'''-Dichloro-5'',5'''-dicarboxy-4'',4'''-di[p-(carboxymethyl)benzyloxy]-4',4'-diphenyl-3beta-(3'-buten-1-yl)cholestane]
122 | CC(C)CCCC(C)[C@H]1CCC2C3CCC4C[C@@H](CCC=C(c5cc(Cl)c(O)c(C(=O)N[C@@H](CC(=O)O)C(=O)O)c5)c5cc(Cl)c(O)c(C(=O)N[C@@H](CC(=O)O)C(=O)O)c5)CC[C@]4(C)C3CC[C@@]21C (stereo partly drawn) [(S)-2-(3-Chloro-5-{1-[3-chloro-5-((S)-1,2-dicarboxy-ethylcarbamoyl)-4-hydroxy-phenyl]-4-[(3S,10S,13R,17R)-17-(1,5-dimethyl-hexyl)-10,13-dimethyl-hexadecahydro-cyclopenta[a]phenanthren-3-yl]-but-1-enyl}-2-hydroxy-benzoylamino)-succinic acid]
> 100 | CC(C)CCCC(C)[C@H]1CCC2C3CCC4C[C@@H](CCC=C(c5cc(Cl)c(OCc6ccc(-c7ccc(C(=O)O)cc7)cc6)c(C(=O)O)c5)c5cc(Cl)c(OCc6ccc(-c7ccc(C(=O)O)cc7)cc6)c(C(=O)O)c5)CC[C@]4(C)C3CC[C@@]21C (stereo partly drawn) [3'',3'''-Dichloro-5'',5'''-dicarboxy-4'',4'''-di[p-(4-carboxy-phenyl)benzyloxy]-4',4'-diphenyl-3beta-(3'-buten-1-yl)cholestane]

Further lines, the molecule ahead of its results:

Compound | EC50 [µM]
CC(C)CCCC(C)[C@H]1CCC2C3CCC4C[C@@H](CCC=C(c5cc(Cl)c(OCc6cccc(C(=O)O)c6)c(C(=O)O)c5)c5cc(Cl)c(OCc6cccc(C(=O)O)c6)c(C(=O)O)c5)CC[C@]4(C)C3CC[C@@]21C (stereo not given in full) [Cosalane analogue] | > 29
CC(C)CCCC(C)[C@H]1CCC2C3CCC4C[C@@H](CCC=C(c5cc(Cl)c(OCc6ccc(C(=O)O)cc6)c(C(=O)O)c5)c5cc(Cl)c(OCc6ccc(C(=O)O)cc6)c(C(=O)O)c5)CC[C@]4(C)C3CC[C@@]21C (stereo not given in full) [Cosalane analogue] | 22
CC(C)CCCC(C)[C@H]1CCC2C3CCC4C[C@@H](CCC=C(c5cc(Cl)c(O)c(C(=O)N[C@@H](CCC(=O)O)C(=O)O)c5)c5cc(Cl)c(O)c(C(=O)N[C@@H](CCC(=O)O)C(=O)O)c5)CC[C@]4(C)C3CC[C@@]21C (stereo not given in full) [2-(3-Chloro-5-{1-[3-chloro-5-(1,3-dicarboxy-propylcarbamoyl)-4-hydroxy-phenyl]-4-[17-(1,5-dimethyl-hexyl)-10,13-dimethyl-hexadecahydro-cyclopenta[a]phenanthren-3-yl]-but-1-enyl}-2-hydroxy-benzoylamino)-pentanedioic acid] | 69.6
CC(C)CCCC(C)[C@H]1CCC2C3CCC4C[C@@H](CCC=C(c5cc(Cl)c(O)c(C(=O)O)c5)c5cc(Cl)c(O)c(C(=O)O)c5)CC[C@]4(C)C3CC[C@@]21C (stereo partly drawn) [5-{1-(3-carboxy-5-chloro-4-hydroxyphenyl)-4-[1-(1,5-dimethylhexyl)-9a,11a-dimethyl-(9aS,11aR)-perhydrocyclopenta[a]phenanthren-7-yl]-1-butenyl}-3-chloro-2-hydroxybenzoic acid] | 4
CC(C)CCCC(C)[C@H]1CCC2C3CCC4C[C@@H](CCC=C(c5cc(Cl)c(OCc6ccccc6C(=O)O)c(C(=O)O)c5)c5cc(Cl)c(OCc6ccccc6C(=O)O)c(C(=O)O)c5)CC[C@]4(C)C3CC[C@@]21C (stereo not given in full) [Cosalane analogue] | > 37
CC(C)CCCC(C)[C@H]1CCC2C3CCC4C[C@@H](CCCC(c5cc(Cl)c(O)c(C(=O)N[C@@H](CCC(=O)O)C(=O)O)c5)c5cc(Cl)c(O)c(C(=O)N[C@@H](CCC(=O)O)C(=O)O)c5)CC[C@]4(C)C3CC[C@@]21C (stereo not given in full) [2-(3-Chloro-5-{1-[3-chloro-5-(1,3-dicarboxy-propylcarbamoyl)-4-hydroxy-phenyl]-4-[17-(1,5-dimethyl-hexyl)-10,13-dimethyl-hexadecahydro-cyclopenta[a]phenanthren-3-yl]-butyl}-2-hydroxy-benzoylamino)-pentanedioic acid] | 73
CC(C)CCCC(C)[C@H]1CCC2C3CCC4C[C@@H](CCC=C(c5cc(Cl)c(OCc6ccc(-c7cccc(C(=O)O)c7)cc6)c(C(=O)O)c5)c5cc(Cl)c(OCc6ccc(-c7cccc(C(=O)O)c7)cc6)c(C(=O)O)c5)CC[C@]4(C)C3CC[C@@]21C (stereo partly drawn) [3'',3'''-Dichloro-5'',5'''-dicarboxy-4'',4'''-di[p-(3-carboxy-phenyl)benzyloxy]-4',4'-diphenyl-3beta-(3'-buten-1-yl)cholestane] | > 95
